Results taken from ChEMBL document CHEMBL1138450, “Carbonic anhydrase activators: activation of human isozymes I, II and IX with phenylsulfonylhydrazido l-histidine derivatives” (Bioorg Med Chem Lett, 2009).

Columns and labels:
[1] = biological target: Carbonic anhydrase 1 (Homo sapiens) (UniProt P00915); assay: Activation of human recombinant CA1 by stopped flow CO2 hydration assay
[2] = biological target: Carbonic anhydrase 2 (Homo sapiens) (UniProt P00918); assay: Activation of human recombinant CA2 by stopped flow CO2 hydration assay
[3] = biological target: Carbonic anhydrase 9 (Homo sapiens) (UniProt Q16790); assay: Activation of human recombinant CA9 catalytic domain by stopped flow CO2 hydration assay

Chain of Carbonic anhydrase 1 (Homo sapiens) (P00915 2-261 limits assumed): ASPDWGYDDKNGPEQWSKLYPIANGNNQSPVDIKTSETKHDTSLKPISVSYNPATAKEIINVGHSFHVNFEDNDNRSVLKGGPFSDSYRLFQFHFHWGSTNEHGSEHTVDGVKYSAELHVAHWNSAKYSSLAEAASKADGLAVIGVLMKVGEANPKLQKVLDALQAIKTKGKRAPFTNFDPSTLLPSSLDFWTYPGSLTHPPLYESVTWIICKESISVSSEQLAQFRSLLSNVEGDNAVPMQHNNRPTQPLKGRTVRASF

## N[C@@H](Cc1c[nH]cn1)C(=O)NNS(=O)(=O)c1ccc(Cl)cc1
[1]
  KA: 70.1 µM
[2]
  KA: 6.53 µM
[3]
  KA: 35.4 µM

## N#Cc1ccc(S(=O)(=O)NNC(=O)[C@@H](N)Cc2c[nH]cn2)cc1
[1]
  KA: 40.3 µM
[2]
  KA: 28.7 µM
[3]
  KA: 17.8 µM

## N[C@@H](Cc1c[nH]cn1)C(=O)NNS(=O)(=O)c1c(F)c(F)c(F)c(F)c1F
[1]
  KA: 42.5 µM
[2]
  KA: 50.2 µM
[3]
  KA: 30.2 µM

## N[C@@H](Cc1c[nH]cn1)C(=O)NNS(=O)(=O)c1ccc(I)cc1
[1]
  KA: 76.3 µM
[2]
  KA: 0.21 µM
[3]
  KA: 14.1 µM

## N[C@@H](Cc1c[nH]cn1)C(=O)NNS(=O)(=O)c1ccc2ccccc2c1
[1]
  KA: 63.8 µM
[2]
  KA: 18 µM
[3]
  KA: 24.1 µM

## N[C@@H](Cc1c[nH]cn1)C(=O)NNS(=O)(=O)c1ccc(Br)cc1
[1]
  KA: 55.7 µM
[2]
  KA: 19.6 µM
[3]
  KA: 13.8 µM

## N[C@@H](Cc1c[nH]cn1)C(=O)NNS(=O)(=O)c1ccc(C(F)(F)F)cc1
[1]
  KA: 38.9 µM
[2]
  KA: 49.5 µM
[3]
  KA: 22.4 µM

## N[C@@H](Cc1c[nH]cn1)C(=O)NNS(=O)(=O)c1ccc(-c2ccccc2)cc1
[1]
  KA: 33.1 µM
[2]
  KA: 51.7 µM
[3]
  KA: 28.5 µM

## COc1ccc(S(=O)(=O)NNC(=O)[C@@H](N)Cc2c[nH]cn2)cc1
[1]
  KA: 44.8 µM
[2]
  KA: 38 µM
[3]
  KA: 27.4 µM

## N[C@@H](Cc1c[nH]cn1)C(=O)NNS(=O)(=O)c1ccc(F)cc1
[1]
  KA: 63.4 µM
[2]
  KA: 44.8 µM
[3]
  KA: 19.5 µM

## Cc1ccc(S(=O)(=O)NNC(=O)[C@@H](N)Cc2c[nH]cn2)cc1
[1]
  KA: 46.8 µM
[2]
  KA: 25 µM
[3]
  KA: 18.1 µM

## CC(C)(C)c1ccc(S(=O)(=O)NNC(=O)[C@@H](N)Cc2c[nH]cn2)cc1
[1]
  KA: 78.9 µM
[2]
  KA: 45.2 µM
[3]
  KA: 29.8 µM

## N[C@@H](Cc1c[nH]cn1)C(=O)NNS(=O)(=O)c1ccc([N+](=O)[O-])cc1
[1]
  KA: 54.7 µM
[2]
  KA: 45.6 µM
[3]
  KA: 30.5 µM
